In ChEMBL document CHEMBL2424579, “Quinazolin-4-one derivatives as selective histone deacetylase-6 inhibitors for the treatment of Alzheimer's disease” (J Med Chem, 2013):
pEC50, pIC50: −log10 of the molar value. Calls of active or inactive are those of the source. The calls are words filed in the database; no cut-off is given here.

Biological target: T1, Protein deacetylase HDAC6 (Homo sapiens, UniProt Q9UBN7)
T1 sequence (Q9UBN7 whole entry): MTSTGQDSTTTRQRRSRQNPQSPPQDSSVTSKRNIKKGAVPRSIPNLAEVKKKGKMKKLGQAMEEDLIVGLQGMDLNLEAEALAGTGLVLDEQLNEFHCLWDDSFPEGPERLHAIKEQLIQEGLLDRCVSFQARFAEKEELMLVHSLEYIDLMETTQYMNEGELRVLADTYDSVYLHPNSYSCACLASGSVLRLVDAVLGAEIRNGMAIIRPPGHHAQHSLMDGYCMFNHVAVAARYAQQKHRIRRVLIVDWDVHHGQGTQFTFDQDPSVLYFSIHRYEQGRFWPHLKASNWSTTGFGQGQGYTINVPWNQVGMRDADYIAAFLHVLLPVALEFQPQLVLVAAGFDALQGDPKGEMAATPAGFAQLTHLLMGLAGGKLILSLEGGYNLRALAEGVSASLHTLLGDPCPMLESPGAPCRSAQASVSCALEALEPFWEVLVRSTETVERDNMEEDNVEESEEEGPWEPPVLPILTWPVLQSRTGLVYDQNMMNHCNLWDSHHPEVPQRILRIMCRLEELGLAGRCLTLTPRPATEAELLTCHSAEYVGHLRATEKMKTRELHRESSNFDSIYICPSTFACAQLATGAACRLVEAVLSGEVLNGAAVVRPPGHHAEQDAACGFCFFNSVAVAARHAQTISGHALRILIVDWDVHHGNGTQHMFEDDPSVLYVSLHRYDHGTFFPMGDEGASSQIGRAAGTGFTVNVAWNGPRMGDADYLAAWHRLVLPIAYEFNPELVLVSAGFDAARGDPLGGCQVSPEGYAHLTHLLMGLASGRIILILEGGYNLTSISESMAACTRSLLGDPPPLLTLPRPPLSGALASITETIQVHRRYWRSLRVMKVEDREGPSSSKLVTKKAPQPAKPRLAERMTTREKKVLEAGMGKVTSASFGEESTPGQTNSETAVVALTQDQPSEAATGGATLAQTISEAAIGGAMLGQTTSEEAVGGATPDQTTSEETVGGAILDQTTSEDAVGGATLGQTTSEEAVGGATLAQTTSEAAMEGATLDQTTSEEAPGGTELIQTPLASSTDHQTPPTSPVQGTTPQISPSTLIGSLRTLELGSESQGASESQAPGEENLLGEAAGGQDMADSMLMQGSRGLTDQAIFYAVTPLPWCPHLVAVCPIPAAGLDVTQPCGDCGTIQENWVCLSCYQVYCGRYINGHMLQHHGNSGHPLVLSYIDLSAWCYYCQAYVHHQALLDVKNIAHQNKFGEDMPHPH
Assay: Inhibition of human recombinant HDAC6 expressed in baculovirus/sf9 cells using RHKKAc as substrate
Conditions: not given

Structure (SMILES) | pIC50
CCc1nc2ccc(Cc3ccc(C(=O)NO)cc3)cc2c(=O)n1CCc1ccccc1 | 7.96
O=C(/C=C/c1ccc2c(=O)n(CCc3ccccc3)cnc2c1)NO | 7.46
Cc1nc2cc(/C=C/C(=O)NO)ccc2c(=O)n1Cc1ccccc1 | 7.62
CCc1nc2cc(/C=C/C(=O)NO)ccc2c(=O)n1CCc1ccccc1 | 7.96
CCc1nc2cc(/C=C/C(=O)NO)ccc2c(=O)n1CCc1ccc(OC)cc1 | 7.39

Biological target: Poly [ADP-ribose] polymerase 1 (Homo sapiens) (UniProt P09874)
Sequence (P09874 whole entry): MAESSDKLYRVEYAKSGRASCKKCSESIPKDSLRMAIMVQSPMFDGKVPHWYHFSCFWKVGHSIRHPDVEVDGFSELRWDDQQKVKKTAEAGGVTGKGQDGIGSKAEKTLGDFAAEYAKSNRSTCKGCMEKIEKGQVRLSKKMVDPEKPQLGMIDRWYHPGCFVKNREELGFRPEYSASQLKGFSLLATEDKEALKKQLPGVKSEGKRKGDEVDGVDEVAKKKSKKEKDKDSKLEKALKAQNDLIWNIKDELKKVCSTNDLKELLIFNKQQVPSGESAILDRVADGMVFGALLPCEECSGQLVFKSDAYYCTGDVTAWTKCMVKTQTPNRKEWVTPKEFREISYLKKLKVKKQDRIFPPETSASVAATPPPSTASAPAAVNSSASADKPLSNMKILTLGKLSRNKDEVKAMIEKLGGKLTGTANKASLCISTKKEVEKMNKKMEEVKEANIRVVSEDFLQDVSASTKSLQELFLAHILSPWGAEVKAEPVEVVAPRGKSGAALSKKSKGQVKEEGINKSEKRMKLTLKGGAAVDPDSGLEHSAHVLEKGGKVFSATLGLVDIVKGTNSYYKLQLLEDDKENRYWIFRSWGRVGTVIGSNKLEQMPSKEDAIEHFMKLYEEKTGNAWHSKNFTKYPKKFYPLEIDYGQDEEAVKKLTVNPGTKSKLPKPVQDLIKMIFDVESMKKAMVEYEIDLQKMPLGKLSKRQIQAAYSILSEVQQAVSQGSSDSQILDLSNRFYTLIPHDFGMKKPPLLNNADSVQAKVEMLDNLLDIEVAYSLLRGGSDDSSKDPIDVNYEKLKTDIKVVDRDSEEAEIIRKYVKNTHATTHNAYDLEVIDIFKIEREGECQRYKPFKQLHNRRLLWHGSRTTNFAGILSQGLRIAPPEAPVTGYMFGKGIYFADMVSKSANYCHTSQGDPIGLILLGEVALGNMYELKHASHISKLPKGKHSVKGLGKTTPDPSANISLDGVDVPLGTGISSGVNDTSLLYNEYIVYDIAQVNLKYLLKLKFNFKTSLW
Assay: Inhibition of PARP1 (unknown origin) up to 25 uM
Conditions: not given

Structure (SMILES) | inhibition
CCc1nc2cc(/C=C/C(=O)NO)ccc2c(=O)n1CCc1ccccc1 | inactive

System: PC-12
Assay: Induction of neurite outgrowth in rat PC12 cells after 5 days
Format: functional, cell-based
Conditions: PC-12, 120 h

Structure (SMILES) | pEC50
CCc1nc2ccc(Cc3ccc(C(=O)NO)cc3)cc2c(=O)n1CCc1ccccc1 | 5.03
O=C(/C=C/c1ccc2c(=O)n(CCc3ccccc3)cnc2c1)NO | < 4.60
Cc1nc2cc(/C=C/C(=O)NO)ccc2c(=O)n1Cc1ccccc1 | 4.68
CCc1nc2cc(/C=C/C(=O)NO)ccc2c(=O)n1CCc1ccccc1 | 5.28
CCc1nc2cc(/C=C/C(=O)NO)ccc2c(=O)n1CCc1ccc(OC)cc1 | 5.14

System: PC-12
Assay: Cytotoxicity against rat PC12 cells at 25 uM
Format: cell-based
Conditions: pc-12, 25 µM

Structure (SMILES) | Activity
CCc1nc2ccc(Cc3ccc(C(=O)NO)cc3)cc2c(=O)n1CCc1ccccc1 | Non-toxic
O=C(/C=C/c1ccc2c(=O)n(CCc3ccccc3)cnc2c1)NO | Non-toxic
Cc1nc2cc(/C=C/C(=O)NO)ccc2c(=O)n1Cc1ccccc1 | Non-toxic
CCc1nc2cc(/C=C/C(=O)NO)ccc2c(=O)n1CCc1ccccc1 | Non-toxic
CCc1nc2cc(/C=C/C(=O)NO)ccc2c(=O)n1CCc1ccc(OC)cc1 | Non-toxic

Biological target: Amyloid-beta precursor protein (Homo sapiens, UniProt P05067)
Sequence (P05067 whole entry): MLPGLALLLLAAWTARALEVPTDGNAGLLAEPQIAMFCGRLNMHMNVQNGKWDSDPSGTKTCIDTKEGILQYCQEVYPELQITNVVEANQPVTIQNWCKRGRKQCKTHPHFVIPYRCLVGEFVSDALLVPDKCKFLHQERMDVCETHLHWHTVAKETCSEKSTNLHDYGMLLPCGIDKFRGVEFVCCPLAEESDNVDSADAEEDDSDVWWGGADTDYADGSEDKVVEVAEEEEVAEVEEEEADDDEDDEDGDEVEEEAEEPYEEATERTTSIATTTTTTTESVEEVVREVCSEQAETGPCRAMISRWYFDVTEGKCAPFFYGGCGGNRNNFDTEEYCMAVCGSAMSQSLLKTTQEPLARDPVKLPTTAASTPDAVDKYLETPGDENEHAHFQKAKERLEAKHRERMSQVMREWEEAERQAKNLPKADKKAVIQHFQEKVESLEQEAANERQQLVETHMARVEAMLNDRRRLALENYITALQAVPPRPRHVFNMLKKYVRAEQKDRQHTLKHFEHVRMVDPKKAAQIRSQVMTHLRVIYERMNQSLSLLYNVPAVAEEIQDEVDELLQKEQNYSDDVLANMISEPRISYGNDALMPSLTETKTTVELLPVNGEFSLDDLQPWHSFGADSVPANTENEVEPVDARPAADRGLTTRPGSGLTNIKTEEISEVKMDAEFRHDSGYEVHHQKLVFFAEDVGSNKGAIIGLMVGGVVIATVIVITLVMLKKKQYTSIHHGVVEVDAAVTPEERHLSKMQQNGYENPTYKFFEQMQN
Assay: Inhibition of amyloid beta aggregation (unknown origin) after 4 hrs by thioflavin S assay in absence of Zn2+
Conditions: not given

Structure (SMILES) | pIC50
O=C(/C=C/c1ccc2c(=O)n(CCc3ccccc3)cnc2c1)NO | < 4.30
Cc1nc2cc(/C=C/C(=O)NO)ccc2c(=O)n1Cc1ccccc1 | < 4.30
CCc1nc2cc(/C=C/C(=O)NO)ccc2c(=O)n1CCc1ccccc1 | < 4.30

System: SH-SY5Y
Assay: Increase of synaptic activity in human SH-SY5Y cells after 5 days by fluorescence assay
Format: functional, cell-based
Conditions: 120 h

Structure (SMILES) | pEC50
CCc1nc2ccc(Cc3ccc(C(=O)NO)cc3)cc2c(=O)n1CCc1ccccc1 | 5.39
O=C(/C=C/c1ccc2c(=O)n(CCc3ccccc3)cnc2c1)NO | 5.31
Cc1nc2cc(/C=C/C(=O)NO)ccc2c(=O)n1Cc1ccccc1 | 5.09
CCc1nc2cc(/C=C/C(=O)NO)ccc2c(=O)n1CCc1ccccc1 | 6.05
CCc1nc2cc(/C=C/C(=O)NO)ccc2c(=O)n1CCc1ccc(OC)cc1 | 4.69

System: PC-12
Assay: Induction of neurite outgrowth in rat PC12 cells at 10 uM after 5 days
Format: functional, cell-based
Conditions: not given

Structure (SMILES) | Activity
CCc1nc2ccc(Cc3ccc(C(=O)NO)cc3)cc2c(=O)n1CCc1ccccc1 | Active
O=C(/C=C/c1ccc2c(=O)n(CCc3ccccc3)cnc2c1)NO | Active
Cc1nc2cc(/C=C/C(=O)NO)ccc2c(=O)n1Cc1ccccc1 | Active
CCc1nc2cc(/C=C/C(=O)NO)ccc2c(=O)n1CCc1ccccc1 | Active

Biological target: T2, Histone deacetylase 8 (Homo sapiens, UniProt Q9BY41)
T2 sequence (Q9BY41 whole entry): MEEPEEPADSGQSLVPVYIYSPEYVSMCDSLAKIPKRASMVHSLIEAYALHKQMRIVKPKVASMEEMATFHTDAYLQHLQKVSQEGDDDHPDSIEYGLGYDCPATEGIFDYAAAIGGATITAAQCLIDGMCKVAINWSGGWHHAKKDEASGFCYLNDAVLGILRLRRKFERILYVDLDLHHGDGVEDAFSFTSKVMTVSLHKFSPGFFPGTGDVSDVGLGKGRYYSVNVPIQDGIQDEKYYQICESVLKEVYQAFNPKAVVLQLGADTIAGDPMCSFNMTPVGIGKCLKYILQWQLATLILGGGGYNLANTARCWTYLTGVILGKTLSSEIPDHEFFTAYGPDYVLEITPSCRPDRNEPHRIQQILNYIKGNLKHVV
Assay: Inhibition of human recombinant HDAC8 expressed in baculovirus/sf9 cells using RHKAcKAc as substrate
Conditions: not given

Structure (SMILES) | pIC50
CCc1nc2ccc(Cc3ccc(C(=O)NO)cc3)cc2c(=O)n1CCc1ccccc1 | 7.00
O=C(/C=C/c1ccc2c(=O)n(CCc3ccccc3)cnc2c1)NO | 6.22
Cc1nc2cc(/C=C/C(=O)NO)ccc2c(=O)n1Cc1ccccc1 | 5.90
CCc1nc2cc(/C=C/C(=O)NO)ccc2c(=O)n1CCc1ccccc1 | 5.93
CCc1nc2cc(/C=C/C(=O)NO)ccc2c(=O)n1CCc1ccc(OC)cc1 | 6.23

Biological target: T3, Histone deacetylase 11 (Homo sapiens, UniProt Q96DB2)
T3 sequence (Q96DB2 whole entry): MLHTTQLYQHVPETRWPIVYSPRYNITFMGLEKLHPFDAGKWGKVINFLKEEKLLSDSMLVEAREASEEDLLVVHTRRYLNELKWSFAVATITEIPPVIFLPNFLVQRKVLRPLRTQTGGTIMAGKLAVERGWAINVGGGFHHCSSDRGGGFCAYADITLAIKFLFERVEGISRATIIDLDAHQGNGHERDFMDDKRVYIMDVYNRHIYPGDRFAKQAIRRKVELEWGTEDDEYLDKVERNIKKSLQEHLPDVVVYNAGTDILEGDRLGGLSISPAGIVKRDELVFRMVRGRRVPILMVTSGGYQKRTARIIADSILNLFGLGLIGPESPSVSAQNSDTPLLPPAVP
Assay: Inhibition of human recombinant HDAC11 expressed in baculovirus/sf9 cells using RHKKAc as substrate
Conditions: not given

Structure (SMILES) | pIC50
CCc1nc2ccc(Cc3ccc(C(=O)NO)cc3)cc2c(=O)n1CCc1ccccc1 | 6.18
O=C(/C=C/c1ccc2c(=O)n(CCc3ccccc3)cnc2c1)NO | 6.14
Cc1nc2cc(/C=C/C(=O)NO)ccc2c(=O)n1Cc1ccccc1 | 5.61
CCc1nc2cc(/C=C/C(=O)NO)ccc2c(=O)n1CCc1ccccc1 | 5.53
CCc1nc2cc(/C=C/C(=O)NO)ccc2c(=O)n1CCc1ccc(OC)cc1 | 5.41

System: PC-12
Assay: Induction iof GAP-43 protein expression in rat PC12 cells after 48 hrs by Western blotting analysis
Format: functional, cell-based
Conditions: not given

Structure (SMILES) | Activity
CCc1nc2cc(/C=C/C(=O)NO)ccc2c(=O)n1CCc1ccccc1 | Dose-dependent effect

Biological target: Histone deacetylase 1 (Homo sapiens, UniProt Q13547)
Sequence (Q13547 whole entry): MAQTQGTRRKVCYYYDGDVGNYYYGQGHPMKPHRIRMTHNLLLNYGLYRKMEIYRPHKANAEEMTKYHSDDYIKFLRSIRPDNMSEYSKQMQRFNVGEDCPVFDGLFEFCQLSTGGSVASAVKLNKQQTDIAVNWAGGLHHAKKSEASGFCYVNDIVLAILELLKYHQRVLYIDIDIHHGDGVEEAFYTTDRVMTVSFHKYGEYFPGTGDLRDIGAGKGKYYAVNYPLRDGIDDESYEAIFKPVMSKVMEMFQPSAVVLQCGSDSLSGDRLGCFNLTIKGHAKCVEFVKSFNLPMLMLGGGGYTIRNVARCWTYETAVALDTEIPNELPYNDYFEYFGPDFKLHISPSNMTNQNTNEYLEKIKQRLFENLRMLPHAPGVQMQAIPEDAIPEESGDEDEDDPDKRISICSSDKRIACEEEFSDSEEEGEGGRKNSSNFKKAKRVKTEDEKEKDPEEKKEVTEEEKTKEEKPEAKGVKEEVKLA
Assay: Inhibition of human recombinant HDAC1 expressed in baculovirus/sf9 cells using RHKKAc as substrate
Conditions: not given

Structure (SMILES) | pIC50
CCc1nc2ccc(Cc3ccc(C(=O)NO)cc3)cc2c(=O)n1CCc1ccccc1 | 5.98
O=C(/C=C/c1ccc2c(=O)n(CCc3ccccc3)cnc2c1)NO | 6.31
Cc1nc2cc(/C=C/C(=O)NO)ccc2c(=O)n1Cc1ccccc1 | 5.84
CCc1nc2cc(/C=C/C(=O)NO)ccc2c(=O)n1CCc1ccccc1 | 5.92
CCc1nc2cc(/C=C/C(=O)NO)ccc2c(=O)n1CCc1ccc(OC)cc1 | 5.74

System: Vero
Assay: Cytotoxicity against african green monkey Vero cells at 25 uM
Format: cell-based
Conditions: chlorocebus sabaeus

Structure (SMILES) | Activity
CCc1nc2ccc(Cc3ccc(C(=O)NO)cc3)cc2c(=O)n1CCc1ccccc1 | Non-toxic
O=C(/C=C/c1ccc2c(=O)n(CCc3ccccc3)cnc2c1)NO | Non-toxic
Cc1nc2cc(/C=C/C(=O)NO)ccc2c(=O)n1Cc1ccccc1 | Non-toxic
CCc1nc2cc(/C=C/C(=O)NO)ccc2c(=O)n1CCc1ccccc1 | Non-toxic
CCc1nc2cc(/C=C/C(=O)NO)ccc2c(=O)n1CCc1ccc(OC)cc1 | Non-toxic

System: SH-SY5Y
Assay: Induction of neurite outgrowth in human SH-SY5Y cells at 10 uM after 5 days
Format: functional, cell-based
Conditions: not given

Structure (SMILES) | Activity
CCc1nc2ccc(Cc3ccc(C(=O)NO)cc3)cc2c(=O)n1CCc1ccccc1 | Active
O=C(/C=C/c1ccc2c(=O)n(CCc3ccccc3)cnc2c1)NO | Active
Cc1nc2cc(/C=C/C(=O)NO)ccc2c(=O)n1Cc1ccccc1 | Active
CCc1nc2cc(/C=C/C(=O)NO)ccc2c(=O)n1CCc1ccccc1 | Active

System: not listed separately
Assay: Cytotoxicity against human SH-SY5Y cells at 25 uM
Format: cell-based
Conditions: not given

Structure (SMILES) | Activity
CCc1nc2ccc(Cc3ccc(C(=O)NO)cc3)cc2c(=O)n1CCc1ccccc1 | Non-toxic
O=C(/C=C/c1ccc2c(=O)n(CCc3ccccc3)cnc2c1)NO | Non-toxic
Cc1nc2cc(/C=C/C(=O)NO)ccc2c(=O)n1Cc1ccccc1 | Non-toxic
CCc1nc2cc(/C=C/C(=O)NO)ccc2c(=O)n1CCc1ccccc1 | Non-toxic
CCc1nc2cc(/C=C/C(=O)NO)ccc2c(=O)n1CCc1ccc(OC)cc1 | Non-toxic

System: SH-SY5Y
Assay: Induction of neurite outgrowth in human SH-SY5Y cells after 5 days
Format: functional, cell-based
Conditions: 120 h

Structure (SMILES) | pEC50
CCc1nc2ccc(Cc3ccc(C(=O)NO)cc3)cc2c(=O)n1CCc1ccccc1 | 4.74
O=C(/C=C/c1ccc2c(=O)n(CCc3ccccc3)cnc2c1)NO | 4.82
Cc1nc2cc(/C=C/C(=O)NO)ccc2c(=O)n1Cc1ccccc1 | < 4.60
CCc1nc2cc(/C=C/C(=O)NO)ccc2c(=O)n1CCc1ccccc1 | 4.96
CCc1nc2cc(/C=C/C(=O)NO)ccc2c(=O)n1CCc1ccc(OC)cc1 | < 4.60

Biological target: Histone deacetylase 2 (Homo sapiens, UniProt Q92769)
Sequence (Q92769 whole entry): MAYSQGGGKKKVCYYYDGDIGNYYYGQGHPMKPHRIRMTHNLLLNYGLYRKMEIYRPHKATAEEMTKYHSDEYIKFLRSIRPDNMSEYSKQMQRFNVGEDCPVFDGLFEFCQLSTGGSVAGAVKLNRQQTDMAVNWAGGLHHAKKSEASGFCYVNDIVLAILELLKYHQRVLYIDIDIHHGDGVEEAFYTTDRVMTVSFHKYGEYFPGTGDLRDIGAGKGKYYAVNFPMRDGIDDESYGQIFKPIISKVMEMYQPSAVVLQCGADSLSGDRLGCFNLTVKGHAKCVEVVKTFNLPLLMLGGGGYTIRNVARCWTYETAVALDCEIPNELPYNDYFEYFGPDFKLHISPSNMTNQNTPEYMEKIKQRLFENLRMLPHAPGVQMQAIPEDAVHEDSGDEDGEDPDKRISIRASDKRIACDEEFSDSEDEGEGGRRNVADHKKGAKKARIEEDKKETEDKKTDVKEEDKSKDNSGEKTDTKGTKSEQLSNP
Assay: Inhibition of human recombinant HDAC2 expressed in baculovirus/sf9 cells using RHKKAc as substrate
Conditions: not given

Structure (SMILES) | pIC50
CCc1nc2ccc(Cc3ccc(C(=O)NO)cc3)cc2c(=O)n1CCc1ccccc1 | 5.44
O=C(/C=C/c1ccc2c(=O)n(CCc3ccccc3)cnc2c1)NO | 5.91
Cc1nc2cc(/C=C/C(=O)NO)ccc2c(=O)n1Cc1ccccc1 | 5.40
CCc1nc2cc(/C=C/C(=O)NO)ccc2c(=O)n1CCc1ccccc1 | 5.32
CCc1nc2cc(/C=C/C(=O)NO)ccc2c(=O)n1CCc1ccc(OC)cc1 | 5.32

System: PC-12
Assay: Increase of synaptic activity in rat PC12 cells after 5 days by fluorescence assay
Format: functional, cell-based
Conditions: PC-12, 120 h

Structure (SMILES) | pEC50
CCc1nc2ccc(Cc3ccc(C(=O)NO)cc3)cc2c(=O)n1CCc1ccccc1 | 5.54
O=C(/C=C/c1ccc2c(=O)n(CCc3ccccc3)cnc2c1)NO | 4.84
Cc1nc2cc(/C=C/C(=O)NO)ccc2c(=O)n1Cc1ccccc1 | 5.09
CCc1nc2cc(/C=C/C(=O)NO)ccc2c(=O)n1CCc1ccccc1 | 5.14
CCc1nc2cc(/C=C/C(=O)NO)ccc2c(=O)n1CCc1ccc(OC)cc1 | 4.69
